Results as given in patent US8729031B2, “Compounds” (priority 2009, dated 2014).
≈ marks a conversion by molar mass, not a printed value. Like-named read-outs stand apart in the source and are kept apart here.

Experiments:
Type in all cases: cell-based
[1] = system: Streptococcus pneumoniae; assay: microbe, parasite or virus in culture; settings: Streptococcus pneumoniae, read-out: MIC
Method: (§1) Susceptibility testing with the exception of Streptococcus pneumoniae was performed by two-fold serial dilutions in Mueller Hinton Broth supplemented with 50 μg/mL Ca^2+. Susceptibility testing of S. pneumoniae was performed by two-fold serial dilutions in Brain-Heart-Infusion Broth supplemented with 50 μg/mL Ca^2+.

[2] = system: S. aureus SH1000; settings: for MIC against Stapholococcus aureus strain SH1000: strain SH1000, text b20
Method: as §1

[3] = system: S. aureus R33 (MRSA); settings: for MIC against Stapholococcus aureus strain R33: strain R33, text b20
Method: as §1

Q: With `CC[C@H]1OC(=O)[C@H](C)[C@@H](O[C@H]2C[C@@](C)(OC)[C@@H](O)[C@H](C)O2)[C@H](C)[C@@H](O[C@@H]2O[C@H](C)C[C@H](N(C)C)[C@H]2O)[C@](C)(O)C[C@@H](C)C(=O)[C@H](C)[C@@H](O)[C@]1(C)O` [Erythromycin, reference compound] as the molecule, how does the MIC ([1]; isolate QB37301, penicillin Resistant) read?
A: > 32 µg/mL

Q: What about the MIC ([1]; isolate QB37302, penicillin Resistant) of the same molecule?
A: > 32 µg/mL

Q: And the MIC ([1]; isolate QB37303, penicillin Intermediate)?
A: ≤ 0.015 µg/mL

Q: What about the MIC ([1]; isolate QB37304, penicillin Susceptible) of the same molecule?
A: 8 µg/mL (≈ 10.9 µM)

Q: What about the MIC ([1]; isolate QB37306, penicillin Susceptible) of the same molecule?
A: ≤ 0.015 µg/mL

Q: What about the MIC ([1]; isolate QB37307, penicillin Intermediate) of the same molecule?
A: ≤ 0.015 µg/mL

Q: And the MIC ([1]; isolate QB37308, penicillin Susceptible)?
A: ≤ 0.015 µg/mL

Q: And the MIC ([1]; isolate QB37309, penicillin Resistant)?
A: 2 µg/mL (≈ 2.73 µM)

Q: And the MIC ([1]; isolate QB37310, penicillin Resistant)?
A: > 32 µg/mL

Q: What about the MIC ([1]; isolate QB37311, penicillin Resistant) of the same molecule?
A: > 32 µg/mL

Q: What about the MIC ([1]; isolate QB37312, penicillin Intermediate) of the same molecule?
A: > 32 µg/mL

Q: What about the MIC ([1]; isolate QB37313, penicillin Susceptible) of the same molecule?
A: > 32 µg/mL

Q: What about the MIC ([1]; isolate QB37314, penicillin Resistant) of the same molecule?
A: > 32 µg/mL

Q: And the MIC ([1]; isolate QB37315, penicillin Susceptible)?
A: ≤ 0.015 µg/mL

Q: What about the MIC ([1]; isolate QB37316, penicillin Susceptible) of the same molecule?
A: ≤ 0.015 µg/mL

Q: And the MIC ([1]; isolate QB37317, penicillin Susceptible)?
A: ≤ 0.015 µg/mL

Q: What about the MIC ([1]; isolate QB37318, penicillin Resistant) of the same molecule?
A: 4 µg/mL (≈ 5.45 µM)

Q: And the MIC ([1]; isolate QB37319, penicillin Resistant)?
A: > 32 µg/mL

Q: What does the source list for `CC[C@H](C)[C@@H]1NC(=O)[C@@H]2NC(=O)[C@H](CC(C)C)NC(=O)[C@H](NC(=O)[C@@H]3CSC[C@@H](N)C(=O)N[C@@H](CO)C(=O)NCC(=O)N[C@@H](Cc4c[nH]c5ccccc45)C(=O)N[C@@H](C(C)C)C(=O)N3)[C@H](C)SC[C@H](NC(=O)[C@H](CCC(=O)O)NC1=O)C(=O)NCC(=O)N[C@H]1C(=O)N[C@@H](CC(C)C)C(=O)N[C@@H](C(C)C)C(=O)N[C@@H](CS[C@H]2C)C(=O)N[C@@H](C)C(=O)N[C@H](C(=O)N2CCN(Cc3ccc(Br)cc3F)CC2)CS[C@H]1C` [Example 7, Deoxyactagardine B [4-(2′-fluoro-4′-bromobenzyl)piperazine]monocarboxamide]?
A: MIC in μg/mL against strain S. aureus SH1000 [2]: 8 µg/mL (≈ 3.76 µM); MIC in μg/mL against strain S. aureus R33 (MRSA) [3]: 8 µg/mL (≈ 3.76 µM)

Q: With `CC[C@H](C)[C@@H]1NC(=O)[C@@H]2NC(=O)[C@H](CC(C)C)NC(=O)[C@H](NC(=O)[C@@H]3CSC[C@@H](N)C(=O)N[C@@H](CO)C(=O)NCC(=O)N[C@@H](Cc4c[nH]c5ccccc45)C(=O)N[C@@H](C(C)C)C(=O)N3)[C@H](C)SC[C@H](NC(=O)[C@H](CCC(=O)O)NC1=O)C(=O)NCC(=O)N[C@H]1C(=O)N[C@@H](CC(C)C)C(=O)N[C@@H](C(C)C)C(=O)N[C@@H](CS[C@H]2C)C(=O)N[C@@H](C)C(=O)N[C@H](C(=O)NCc2ccc(Br)cc2)CS[C@H]1C` [Example 9, Deoxyactagardine B [4-bromobenzylamine]monocarboxamide] as the molecule, how does the “MIC in μg/mL against strain S. aureus SH1000” value [2] read?
A: 8 µg/mL (≈ 3.92 µM)

Q: With `CC[C@H](C)[C@@H]1NC(=O)[C@@H]2NC(=O)[C@H](CC(C)C)NC(=O)[C@H](NC(=O)[C@@H]3CSC[C@@H](N)C(=O)N[C@@H](CO)C(=O)NCC(=O)N[C@@H](Cc4c[nH]c5ccccc45)C(=O)N[C@@H](C(C)C)C(=O)N3)[C@H](C)SC[C@H](NC(=O)[C@H](CCC(=O)O)NC1=O)C(=O)NCC(=O)N[C@H]1C(=O)N[C@@H](CC(C)C)C(=O)N[C@@H](C(C)C)C(=O)N[C@@H](CS[C@H]2C)C(=O)N[C@@H](C)C(=O)N[C@H](C(=O)N2CCN(c3ccc(Cl)c(Cl)c3)CC2)CS[C@H]1C` [Example 10, Deoxyactagardine B [4-(3′,4′-dichlorophenyl)piperazine]monocarboxamide] as the molecule, how does the “MIC in μg/mL against strain S. aureus SH1000” value [2] read?
A: 8 µg/mL (≈ 3.83 µM)

Q: Which “MIC in μg/mL against strain S. aureus SH1000” value [2] does the source give for `CC[C@H](C)[C@@H]1NC(=O)[C@@H]2NC(=O)[C@H](CC(C)C)NC(=O)[C@H](NC(=O)[C@@H]3CSC[C@@H](N)C(=O)N[C@@H](CO)C(=O)NCC(=O)N[C@@H](Cc4c[nH]c5ccccc45)C(=O)N[C@@H](C(C)C)C(=O)N3)[C@H](C)SC[C@H](NC(=O)[C@H](CCC(=O)O)NC1=O)C(=O)NCC(=O)N[C@H]1C(=O)N[C@@H](CC(C)C)C(=O)N[C@@H](C(C)C)C(=O)N[C@@H](CS[C@H]2C)C(=O)N[C@@H](C)C(=O)N[C@H](C(=O)NCc2ccc(F)cc2F)CS[C@H]1C` [Example 15, Deoxyactagardine B (2,4-difluorobenzylamine)monocarboxamide] here?
A: 8 µg/mL (≈ 4 µM)

Q: What about the “MIC in μg/mL against strain S. aureus R33 (MRSA)” value (shortened to “MIC in μg/mL … (MRSA)”) [3] of the same molecule?
A: 8 µg/mL (≈ 4 µM)

Q: With `CC[C@H](C)[C@@H]1NC(=O)[C@@H]2NC(=O)[C@H](CC(C)C)NC(=O)[C@H](NC(=O)[C@@H]3CSC[C@@H](N)C(=O)N[C@@H](CO)C(=O)NCC(=O)N[C@@H](Cc4c[nH]c5ccccc45)C(=O)N[C@@H](C(C)C)C(=O)N3)[C@H](C)SC[C@H](NC(=O)[C@H](CCC(=O)O)NC1=O)C(=O)NCC(=O)N[C@H]1C(=O)N[C@@H](CC(C)C)C(=O)N[C@@H](C(C)C)C(=O)N[C@@H](CS[C@H]2C)C(=O)N[C@@H](C)C(=O)N[C@H](C(=O)NCCCNCCCNCc2cc(Cl)cc(Cl)c2)CS[C@H]1C` [Example 20, Deoxyactagardine B [3-(3′-(3″,5″-dichlorobenzylamino)propylamino)propylamine]monocarboxamide] as the molecule, how does the “MIC in μg/mL against strain S. aureus SH1000” value [2] read?
A: 8 µg/mL (≈ 3.73 µM)

Q: What about the “MIC in μg/mL … (MRSA)” value [3] of the same molecule?
A: 8 µg/mL (≈ 3.73 µM)

Q: For `CC[C@H](C)[C@@H]1NC(=O)[C@@H]2NC(=O)[C@H](CC(C)C)NC(=O)[C@H](NC(=O)[C@@H]3CSC[C@@H](N)C(=O)N[C@@H](CO)C(=O)NCC(=O)N[C@@H](Cc4c[nH]c5ccccc45)C(=O)N[C@@H](C(C)C)C(=O)N3)[C@H](C)SC[C@H](NC(=O)[C@H](CCC(=O)O)NC1=O)C(=O)NCC(=O)N[C@H]1C(=O)N[C@@H](CC(C)C)C(=O)N[C@@H](C(C)C)C(=O)N[C@@H](CS[C@H]2C)C(=O)N[C@@H](C)C(=O)N[C@H](C(=O)NCCCCCCNS(=O)(=O)c2c(Cl)cc(Cl)cc2Cl)CS[C@H]1C` [Example 27, Deoxyactagardine B [6-(2′,4′,6′-trichlorobenzenesulfonamido)hexylamine]monocarboxamide], which “MIC in μg/mL against strain S. aureus SH1000” value [2] is on record?
A: 8 µg/mL (≈ 3.61 µM)

Q: And the “MIC in μg/mL … (MRSA)” value [3]?
A: 8 µg/mL (≈ 3.61 µM)

Q: With `CC[C@H](C)[C@@H]1NC(=O)[C@@H]2NC(=O)[C@H](CC(C)C)NC(=O)[C@H](NC(=O)[C@@H]3CSC[C@@H](N)C(=O)N[C@@H](CO)C(=O)NCC(=O)N[C@@H](Cc4c[nH]c5ccccc45)C(=O)N[C@@H](C(C)C)C(=O)N3)[C@H](C)SC[C@H](NC(=O)[C@H](CCC(=O)O)NC1=O)C(=O)NCC(=O)N[C@H]1C(=O)N[C@@H](CC(C)C)C(=O)N[C@@H](C(C)C)C(=O)N[C@@H](CS[C@H]2C)C(=O)N[C@@H](C)C(=O)N[C@H](C(=O)NCCCCCCNCc2cc(Cl)cc(Cl)c2)CS[C@H]1C` [Example 30, Deoxyactagardine B [6-(3′,5′-dichlorobenzylamino)-hexylamine]monocarboxamide] as the molecule, how does the “MIC in μg/mL against strain S. aureus SH1000” value [2] read?
A: 4 µg/mL (≈ 1.88 µM)

Q: What about the “MIC in μg/mL … (MRSA)” value [3] of the same molecule?
A: 8 µg/mL (≈ 3.75 µM)

Q: What does the source list for “Actagardine (3,5-dichlorobenzylamine)monocarboxamide [Example 2]”?
A: MIC in μg/mL against strain S. aureus SH1000 [2]: ≦4 μg/mL; MIC in μg/mL against strain S. aureus R33 (MRSA) [3]: ≦4 μg/mL

Q: For “Deoxyactagardine B 19-[4-(4′-chlorophenyl)piperazine]monocarboxamide [Example 4]”, which “MIC in μg/mL against strain S. aureus SH1000” value [2] is on record?
A: ≦4 μg/mL

Q: What about the “MIC in μg/mL … (MRSA)” value [3] of the same molecule?
A: ≦4 μg/mL

Q: How did the “MIC in μg/mL against strain S. aureus SH1000” value [2] turn out when “Deoxyactagardine B (2,5-dichlorobenzylamine)monocarboxamide [Example 21]” was run?
A: ≦4 μg/mL

Q: What about the “MIC in μg/mL … (MRSA)” value [3] of the same molecule?
A: ≦4 μg/mL

Q: Which “MIC in μg/mL against strain S. aureus SH1000” value [2] does the source give for “Deoxyactagardine B (2-chlorobenzylamine)monocarboxamide [Example 23]” here?
A: ≦4 μg/mL

Q: What about the “MIC in μg/mL … (MRSA)” value [3] of the same molecule?
A: ≦4 μg/mL

Q: Which “MIC in μg/mL against strain S. aureus SH1000” value [2] does the source give for “Deoxyactagardine B (3,4-dichlorobenzylamine)monocarboxamide [Example 22]” here?
A: ≦4 μg/mL

Q: And the “MIC in μg/mL … (MRSA)” value [3]?
A: ≦4 μg/mL

Q: “Deoxyactagardine B (3-chlorobenzylamine)monocarboxamide [Example 24]” was tested. Which “MIC in μg/mL against strain S. aureus SH1000” value [2] did it give?
A: ≦4 μg/mL

Q: What about the “MIC in μg/mL … (MRSA)” value [3] of the same molecule?
A: ≦4 μg/mL

Q: Which results are given for “Deoxyactagardine B (4-chlorobenzylamine)monocarboxamide [Example 25]”?
A: MIC in μg/mL against strain S. aureus SH1000 [2]: ≦4 μg/mL; MIC in μg/mL against strain S. aureus R33 (MRSA) [3]: ≦4 μg/mL

Q: What does the source list for “Deoxyactagardine B [3-(2′-aminomethyl-4′-(2″,4″-dichlorophenyl)-furanyl)propylamine]monocarboxamide [Example 32]”?
A: MIC in μg/mL against strain S. aureus SH1000 [2]: ≦4 μg/mL; MIC in μg/mL against strain S. aureus R33 (MRSA) [3]: ≦4 μg/mL

Q: “Deoxyactagardine B [3-(2′-aminomethyl-4′-(2″-nitro-4″-chlorophenyl)-furanyl)propylamine]monocarboxamide [Example 33]” was tested. Which “MIC in μg/mL against strain S. aureus SH1000” value [2] did it give?
A: ≦4 μg/mL

Q: What about the “MIC in μg/mL … (MRSA)” value [3] of the same molecule?
A: ≦4 μg/mL

Q: Which results are given for “deoxyactagardine B N-[1-(1-methyl-4-piperidinyl)piperazine]monocarboxamide [reference compound]”?
A: MIC against Stapholococcus aureus strain SH1000 [2]: approximately 64 μL/mL; MIC against Stapholococcus aureus strain R33 [3]: approximately 64 μL/mL

Q: Which “MIC against Stapholococcus aureus strain SH1000” value [2] does the source give for “deoxyactagardine B N-[1-(3-dimethylamino propyl)piperazine]monocarboxamide [reference compound]” here?
A: approximately 64 μL/mL

Q: What about the “MIC against Stapholococcus aureus strain R33” value [3] of the same molecule?
A: approximately 64 μL/mL
